{
  "source": "paper PMC1924862",
  "about": "“X-ray structures of Na-GST-1 and Na-GST-2 two glutathione s-transferase from the human hookworm Necator americanus” (BMC Structural Biology, 2007)",
  "key": {"Na-GST-2": {"target": "T1, Na-GST-2 (Necator americanus, UniProt D3U1A6)", "T1 construct": "homodimer; Nu class; glutathione carried over from fermentation", "T1 sequence (D3U1A6 1-206)": "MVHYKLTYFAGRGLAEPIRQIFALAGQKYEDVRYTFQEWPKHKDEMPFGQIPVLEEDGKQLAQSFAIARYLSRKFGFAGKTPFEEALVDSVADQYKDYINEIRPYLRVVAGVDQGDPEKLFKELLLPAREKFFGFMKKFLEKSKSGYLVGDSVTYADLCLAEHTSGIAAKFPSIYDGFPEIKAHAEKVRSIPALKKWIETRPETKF", "assay": "CDNB-glutathione conjugation, absorbance at […] nm", "format": "biochemical"}, "Na-GST-1": {"target": "T2, Na-GST-1 (Necator americanus, UniProt D3U1A5)", "T2 construct": "206 residues ordered; homodimer; Nu class", "T2 sequence (D3U1A5 1-206)": "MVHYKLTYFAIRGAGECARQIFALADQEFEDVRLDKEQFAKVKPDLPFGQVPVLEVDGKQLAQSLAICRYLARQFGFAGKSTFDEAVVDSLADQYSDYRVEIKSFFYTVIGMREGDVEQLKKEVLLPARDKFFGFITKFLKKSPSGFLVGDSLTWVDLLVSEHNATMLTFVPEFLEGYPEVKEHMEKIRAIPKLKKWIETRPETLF", "assay": "CDNB-glutathione conjugation, absorbance at […] nm", "format": "biochemical"}},
  "note": "Read-outs that look alike come from different tables or passages of the source.",
  "data": [
    {"compound": "O=C(C1CCCCC1)N1CC(=O)N2CCc3ccccc3C2C1", "note": "(stereo not drawn) [praziquantel]", "values": [
      {"measurement": "IC50", "setting": "Na-GST-2", "value": 3300, "unit": "µM"},
      {"measurement": "IC50", "setting": "Na-GST-1; read-out: Na-GST-1", "value": "> 20000", "unit": "µM"}
    ]},
    {"compound": "[Cl][Sn]([c]1ccccc1)([c]1ccccc1)[c]1ccccc1", "note": "[chlorotriphenyltin]", "values": [
      {"measurement": "IC50", "setting": "Na-GST-2", "value": 0.7, "unit": "µM"},
      {"measurement": "IC50", "setting": "Na-GST-1", "value": 22, "unit": "µM"}
    ]},
    {"compound": "CCCSc1ccc2nc(NC(=O)OC)[nH]c2c1", "note": "[albendazole]", "values": [
      {"measurement": "IC50", "setting": "Na-GST-2", "value": 68, "unit": "µM"},
      {"measurement": "IC50", "setting": "Na-GST-1; read-out: Na-GST-1", "value": 87, "unit": "µM"}
    ]}
  ]
}
